Some results are limits rather than exact numbers.

For orientation: IC50 means the concentration at which inhibition is half-maximal.

The target of the first test is T1, recombinant glucosyltransferase domain of C. difficile Toxin B/TcdB (Clostridioides difficile, UniProt P18177).
T1 construct: 6-His (C); purchased R&D Systems 6246-GT
T1 sequence (P18177 1-543): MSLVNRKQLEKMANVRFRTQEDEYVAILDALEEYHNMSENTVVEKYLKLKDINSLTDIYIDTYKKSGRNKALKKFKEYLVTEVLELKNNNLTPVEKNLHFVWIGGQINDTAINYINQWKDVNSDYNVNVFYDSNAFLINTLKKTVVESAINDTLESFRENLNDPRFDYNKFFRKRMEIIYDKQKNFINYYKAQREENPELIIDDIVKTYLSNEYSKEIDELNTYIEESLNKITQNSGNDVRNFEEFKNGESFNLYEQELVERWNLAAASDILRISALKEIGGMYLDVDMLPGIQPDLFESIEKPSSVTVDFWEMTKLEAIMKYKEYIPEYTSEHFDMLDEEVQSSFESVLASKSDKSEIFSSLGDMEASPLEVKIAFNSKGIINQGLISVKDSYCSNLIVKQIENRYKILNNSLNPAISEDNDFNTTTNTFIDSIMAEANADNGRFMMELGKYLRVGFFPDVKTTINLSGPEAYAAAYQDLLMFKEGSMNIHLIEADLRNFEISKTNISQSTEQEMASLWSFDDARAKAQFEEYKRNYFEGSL
Kind of test: biochemical.
Settings: not given
As to `Cc1ccc(Nc2nn(C)c3cc(CN4C(=O)c5ccc(Cl)cc5NC(=O)[C@H]4Cc4ccccn4)ccc23)nc1` [Example 44a, (R)-8-Chloro-4-((1-methyl-3-((5-methylpyridin-2-yl)amino)-1H-indazol-6-yl)methyl)-3-(pyridin-2-ylmethyl)-3,4-dihydro-1H-benzo[e][1,4]diazepine-2,5-dione], the IC50 is 0.1 to 0.999 µM.
Consider `O=C1Nc2cc(Cl)ccc2C(=O)N(C[C@H]2CC[C@H](C(=O)Nc3ccc(F)cn3)CC2)[C@@H]1Cc1ccccn1` [Example 4ca, (1R,4r)-4-(((R)-8-chloro-2,5-dioxo-3-(pyridin-2-ylmethyl)-2,3-dihydro-1H-benzo[e][1,4]diazepin-4(5H)-yl)methyl)-N-(5-fluoropyridin-2-yl)cyclohexanecarboxamide], for which the IC50 was below 0.1 µM.
The same measure, in the same setting: next, `CC1(C)CN(C(=O)c2ccc(CN3C(=O)c4ccc(Cl)cc4NC(=O)[C@H]3Cc3ccccn3)cc2Cl)c2ncc(C(F)(F)F)cc21` [Example 5aw, (R)-8-chloro-4-(3-chloro-4-(3,3-dimethyl-5-(trifluoromethyl)-2,3-dihydro-1H-pyrrolo[2,3-b]pyridine-1-carbonyl)benzyl)-3-(pyridin-2-ylmethyl)-3,4-dihydro-1H-benzo[e][1,4]diazepine-2,5-dione]: below 0.1 µM; `O=C1Nc2cc(Cl)ccc2C(=O)N(C[C@H]2CC[C@H](C(=O)c3ccccn3)CC2)[C@@H]1Cc1ccccn1` [Example 11c, (R)-8-chloro-4-((4-picolinoylcyclohexyl)methyl)-3-(pyridin-2-ylmethyl)-3,4-dihydro-1H-benzo[e][1,4]diazepine-2,5-dione]: below 0.1 µM.
As to `O=C(CN1CCCC1)Nc1cc(CN2C(=O)c3ccc(Cl)cc3NC(=O)[C@H]2Cc2ccccn2)ccc1C(=O)O` [Example 22n], the IC50 fell in the range of 0.1 to 0.999 µM.
The same measure, in the same setting: next, `Cc1cc(CN2C(=O)c3ccc(Cl)cc3NC(=O)[C@H]2Cc2ccccn2)cc(C)c1N` [Example 24a, (R)-4-(4-Amino-3,5-dimethylbenzyl)-8-chloro-3-(pyridin-2-ylmethyl)-3,4-dihydro-1H-benzo[e][1,4]diazepine-2,5-dione]: 10 to 35 µM.
On the same count and under the same terms, next, `COc1ccc(NC(=O)c2ccc(CN3C(=O)c4ccc(Cl)cc4NC(=O)[C@H]3Cc3ccccn3)cc2OC)nc1` [Example 4cn, (R)-4-((8-chloro-2,5-dioxo-3-(pyridin-2-ylmethyl)-2,3-dihydro-1H-benzo[e][1,4]diazepin-4(5H)-yl)methyl)-2-methoxy-N-(5-methoxypyridin-2-yl)benzamide]: below 0.1 µM; `COCC(=O)Nc1cc(CN2C(=O)c3ccc(Cl)cc3NC(=O)[C@H]2Cc2ccccn2)ccc1C(=O)O` [Example 22b]: 0.1 to 0.999 µM.
On the same count and under the same terms, next, `Cc1cc(CN2C(=O)c3ccc(Cl)cc3NC(=O)[C@H]2Cc2ccccn2)ccc1C(=O)Nc1ccc(C#N)cn1` [Example 5at, (R)-4-((8-chloro-2,5-dioxo-3-(pyridin-2-ylmethyl)-2,3-dihydro-1H-benzo[e][1,4]diazepin-4(5H)-yl)methyl)-N-(5-cyanopyridin-2-yl)-2-methylbenzamide]: below 0.1 µM.
Regarding `Cc1cccc(C[C@@H]2C(=O)Nc3cc(Cl)ccc3C(=O)N2Cc2ccc(C(=O)O)cc2)c1` [Example 3m], the IC50 fell in the range of 1 to 10 µM.
With `O=C(Nc1ccccn1)c1ccc(CN2C(=O)c3ccc(F)cc3NC(=O)[C@H]2Cc2ccc(Cl)c(Cl)c2)cc1` [Example 4q, (R)-4-((3-(3,4-dichlorobenzyl)-8-fluoro-2,5-dioxo-2,3-dihydro-1H-benzo[e][1,4]diazepin-4(5H)-yl)methyl)-N-(pyridin-2-yl)benzamide], the IC50 fell in the range of 0.1 to 0.999 µM.
As for `COc1ccc(-c2cc(CN3C(=O)c4ccc(Cl)cc4NC(=O)[C@H]3Cc3ccccn3)ccc2C(=O)O)cc1` [Example 8f, (R)-5-((8-chloro-2,5-dioxo-3-(pyridin-2-ylmethyl)-2,3-dihydro-1H-benzo[e][1,4]diazepin-4(5H)-yl)methyl)-4′-methoxy-[1,1′-biphenyl]-2-carboxylic acid], the IC50 is 0.1 to 0.999 µM.
For the molecule `O=C1Nc2cc(Cl)ccc2C(=O)N(Cc2cccc(NS(=O)(=O)c3ccccn3)c2)[C@@H]1Cc1ccccn1` [Example 30c], the IC50 is 1 to 10 µM.
The same measure, in the same setting: the value for `C[C@@H]1C(=O)Nc2cc(Cl)ccc2C(=O)N1Cc1ccc(C(=O)O)c(Br)c1` [Example 1n] was 10 to 35 µM.
Consider `O=C(Nc1ccc(C(F)(F)F)cn1)c1ccc(CN2C(=O)c3ccc(Cl)cc3NC(=O)[C@H]2Cc2ccccn2)cc1` [Example 5q, (R)-4-((8-chloro-2,5-dioxo-3-(pyridin-2-ylmethyl)-2,3-dihydro-1H-benzo[e][1,4]diazepin-4(5H)-yl)methyl)-N-(5-(trifluoromethyl)pyridin-2-yl)benzamide], for which the IC50 is below 0.1 µM.
The same measure, in the same setting: the value for `O=C(O)c1ccc(CN2C(=O)c3ccc(Cl)cc3NC(=O)[C@H]2Cc2ccccn2)cc1-c1cccnc1` [Example 8m, (R)-4-((8-chloro-2,5-dioxo-3-(pyridin-2-ylmethyl)-2,3-dihydro-1H-benzo[e][1,4]diazepin-4(5H)-yl)methyl)-2-(pyridin-3-yl)benzoic acid] was 1 to 10 µM; that for `O=C(Nc1ccc(CN2C(=O)c3ccc(Cl)cc3NC(=O)[C@H]2Cc2ccccn2)cc1)c1ccc(Cl)cn1` [Example 26i] was below 0.1 µM.
The same measure, in the same setting: next, `Cc1ccc(NC(=O)c2ccc(CN3C(=O)c4ccc(Cl)cc4NC(=O)[C@H]3CCO)cc2)nc1` [Example 9a, (R)-4-((8-Chloro-3-(2-hydroxyethyl)-2,5-dioxo-2,3-dihydro-1H-benzo[e][1,4]diazepin-4(5H)-yl)methyl)-N-(5-methylpyridin-2-yl)benzamide]: 0.1 to 0.999 µM; `CS(=O)(=O)Nc1ccc(CN2C(=O)c3ccc(Cl)cc3NC(=O)[C@H]2Cc2ccccn2)cc1` [Example 30a, (R)—N-(4-((8-Chloro-2,5-dioxo-3-(pyridin-2-ylmethyl)-2,3-dihydro-1H-benzo[e][1,4]diazepin-4(5H)-yl)methyl)phenyl)methanesulfonamide]: 10 to 35 µM; `COc1ccc(COc2cc(CN3C(=O)c4ccc(Cl)cc4NC(=O)[C@H]3C)ccc2C(=O)O)cc1` [Example 38a, (R)-2-(4-Methoxybenzyloxy)-4-((8-chloro-3-methyl-2,5-dioxo-2,3-dihydro-1H-benzo[e][1,4]diazepin-4(5H)-yl)methyl)benzoic Acid]: 10 to 35 µM.
As for `CN1CCC(C(=O)Nc2cc(CN3C(=O)c4ccc(Cl)cc4NC(=O)[C@H]3Cc3ccccn3)ccc2C(=O)O)CC1` [Example 22i], the IC50 lay within 10 to 35 µM.
On to `COc1cnc(NC(=O)c2ccc(CN3C(=O)c4ccc(Cl)cc4NC(=O)[C@H]3Cc3ccccn3)cc2)cn1` [Example 5v, (R)-4-((8-chloro-2,5-dioxo-3-(pyridin-2-ylmethyl)-2,3-dihydro-1H-benzo[e][1,4]diazepin-4(5H)-yl)methyl)-N-(5-methoxypyrazin-2-yl)benzamide], for which the IC50 was below 0.1 µM.
Regarding `Cc1ccccc1C[C@@H]1C(=O)Nc2cc(Cl)ccc2C(=O)N1Cc1ccc(C(=O)O)cc1` [Example 3l], the IC50 lay within 1 to 10 µM.
As for `O=C(O)c1ccc(CN2C(=O)c3ccc(Cl)cc3NC(=O)[C@H]2Cc2cccs2)cc1` [Example 1k], the IC50 fell in the range of 10 to 35 µM.
Turning to `C[C@@H]1C(=O)Nc2cc(Cl)ccc2C(=O)N1Cc1ccc(C(=O)Nc2ccc(N3CCOCC3)cn2)cc1` [Example 4bf, (R)-4-((8-chloro-3-methyl-2,5-dioxo-2,3-dihydro-1H-benzo[e][1,4]diazepin-4(5H)-yl)methyl)-N-(5-morpholinopyridin-2-yl)benzamide], the IC50 is 0.1 to 0.999 µM.
Regarding `O=C(Nc1ccccn1)c1ccc(CN2C(=O)c3ccc(Cl)cc3NC(=O)C2Cc2cnccn2)cc1` (stereo not drawn) [Example 4bu, 4-((8-chloro-2,5-dioxo-3-(pyrazin-2-ylmethyl)-2,3-dihydro-1H-benzo[e][1,4]diazepin-4(5H)-yl)methyl)-N-(pyridin-2-yl)benzamide], the IC50 is below 0.1 µM.
Turning to `NC(=O)c1ccc(CN2C(=O)c3ccc(Cl)cc3NC(=O)[C@@H]2Cc2ccc(Cl)c(Cl)c2)cc1` [Example 13a, (S)-4-((8-Chloro-3-(3,4-dichlorobenzyl)-2,5-dioxo-2,3-dihydro-1H-benzo[e][1,4]diazepin-4(5H)-yl)methyl)benzamide], the IC50 was in the range of 10 to 35 µM.
The same measure, in the same setting: the value for `Cc1cccc(C(=O)Nc2ccc(CN3C(=O)c4ccc(Cl)cc4NC(=O)[C@H]3Cc3ccccn3)cc2)n1` [Example 26d] was 1 to 10 µM; that for `O=C1CN(Cc2ccc(C(=O)Nc3ccccn3)cc2)C(=O)c2ccc(Cl)cc2N1` [Example 4am, 4-((8-chloro-2,5-dioxo-2,3-dihydro-1H-benzo[e][1,4]diazepin-4(5H)-yl)methyl)-N-(pyridin-2-yl)benzamide] was 0.1 to 0.999 µM.
On the same count and under the same terms, the value for `Cc1cnc(NC(=O)c2ccc(CN3C(=O)c4ccc(Cl)cc4NC(=O)[C@H]3Cc3cccnc3)cc2)nc1` [Example 5h, (R)-4-((8-chloro-2,5-dioxo-3-(pyridin-3-ylmethyl)-2,3-dihydro-1H-benzo[e][1,4]diazepin-4(5H)-yl)methyl)-N-(5-methylpyrimidin-2-yl)benzamide] was below 0.1 µM; that for `O=C(O)c1ccc(CN2C(=O)c3ccc(Cl)cc3NC(=O)[C@H]2Cc2ccccc2)cc1` [Example 3a, (R)-4-((3-Benzyl-8-chloro-2,5-dioxo-2,3-dihydro-1H-benzo[e][1,4]diazepin-4(5H)-yl)methyl)benzoic Acid] was 1 to 10 µM; that for `Cc1noc(C)c1-c1cc(CN2C(=O)c3ccc(Cl)cc3NC(=O)[C@H]2Cc2ccccn2)ccc1C(=O)O` [Example 8t, 4-(((R)-8-chloro-2,5-dioxo-3-(pyridin-2-ylmethyl)-2,3-dihydro-1H-benzo[e][1,4]diazepin-4(5H)-yl)methyl)-2-(3,5-dimethylisoxazol-4-yl)benzoic acid] was 1 to 10 µM.

The same test, now with this note: read-out: TcdB UDP-Glucose hydrolysis activity (IC50, coded); UDP-Glucose hydrolysis assay, fluorescence polarization.
Consider `COc1ccc(NC(=O)C2CCC(CN3C(=O)c4ccc(Cl)cc4NC(=O)[C@H]3Cc3ccccn3)CC2)nc1` (stereo partly drawn) [Example 4bz, (1R,4r)-4-(((R)-8-chloro-2,5-dioxo-3-(pyridin-2-ylmethyl)-2,3-dihydro-1H-benzo[e][1,4]diazepin-4(5H)-yl)methyl)-N-(5-methoxypyridin-2-yl)cyclohexanecarboxamide], for which the IC50 is below 0.1 µM.
